Data published in PMC8537218, “Discovery of a Novel Class of Norovirus Inhibitors with High Barrier of Resistance” (Pharmaceuticals, 2021).
Several values for one entry are separate records, joined by “and”; a condition that tells them apart may be missing. Equal values may be shown once. Entries after “also recorded” stand apart in the source; their conditions may differ. Read-outs that look alike come from different tables or passages of the source.

How the values were obtained:
[1] = test system: Murine norovirus type 1, strain CW1; assay: MNV-induced CPE reduction assay (MTS read-out) in RAW 264.7 cells; type: cell-based; conditions: MNV CW1, RAW 264.7 cells, read-out: MNV EC50 ± SD
Protocol: Norovirus: The experiment was performed as described earlier. In short, RAW 264.7 cells (1 × 10^4 cells/well) were infected with MNV.CW1 in the presence of a dilution series of compounds. Antiviral activity and cytotoxicity were determined using a colometric assay using 3-(4,5-dimethylthiazol-2-yl)-5-(3-carboxymethoxyphenyl)-2-(4-sulfophenyl)-2H-tetrazolium (MTS). The 50% effective concentration (EC50) was defined as the compound concentration that protected 50% of the cells from CPE. The cell viability % was calculated as (ODtreated/ODCC) […] and the 50% cytotoxic concentration (CC50) was defined as the compound concentration that reduces the number of viable cells by 50%.

MNV RdRp = MNV RdRp (Norovirus, UniProt Q80J95); assay: In vitro enzymatic inhibition assay with MNV RdRp; type: biochemical, Murine norovirus; conditions: 3.4 µM MNV RdRp, poly(U) template, 100 µM ATP, compound 0 to 100 µM
Protocol: Compound 6 was tested to determine its effects on the polymerase activity. The formation of dsRNA, from a single-stranded poly(U) template (Sigma-Aldrich, 10 µg) and 100 µM ATP, was followed for 1 h at 30 °C on a TECAN Infinite 200 PRO microplate reader, measuring the growth of PicoGreen fluorescence (Ex/Em = 485/530 nm) after the addition of 3.4 µM MNV RdRp and of increasing amounts of compound 6 (from 0 to 100 µM), in a reaction mixture containing 20 mM Tris/HCl (pH 7.5), 25 mM NaCl, 0,3 mM MnCl2, 5 mM MgCl2, 1 mM DTT, 2 U RiboLock Ribonuclease inhibitor (Life technologies). The final fluorescence values were calculated as the average of four independent experiments. Measurement of the activity (i.e., linear slope of fluorescence increase in time) vs. compound 6 concentration was used to estimate the IC50 value of the compound with the program GraFit5 (Erithacus software).

[2] = test system: HuNoV GI.1 replicon (Norwalk replicon); assay: HuNoV GI.1 replicon assay in HG23 cells (RT-qPCR); type: cell-based, Human norovirus
Protocol: HuNoV GI.1 replicon: The experiment was performed as described earlier with minor modifications. In short, HG23 cells (7.5 × 10^2 cells/well) were seeded into the wells of a 96-well plate without G418 (Geneticin Selective Antibiotic). After 24 h of incubation, serial dilutions of compounds were added. Cells were further incubated for 72 h, then cells were collected for RNA load quantification by RT-qPCR. To determine relative levels of Norwalk virus replicon RNA, β-actin was used as a normalizer and ratios were calculated as previously described.

MNV [3] = assay: Time-of-drug-addition assay (TOA) in MNV-infected RAW 264.7 cells; type: cell-based, Murine norovirus
Protocol: RAW 264.7 cells (4 × 10^5 cells/mL) were infected with MNV (MOI of 1). After 1 h at 4 °C, cells were washed with cold (4 °C) DMEM to remove unbound viruses. Cells were incubated at 37 °C to start the infection. To study the replication kinetics of MNV supernatant and cells were harvested, from untreated cultures, every 2 h until 24 h post-infection (pi) and viral RNA was quantified by RT-qPCR. In parallel, another set of infected cultures were treated with compound. The compound was added at 2 h intervals and cultures were further incubated until 24 h pi, supernatant and cells were collected separately for determination of the viral RNA by RT-qPCR. The isolation of the extracellular MNV RNA from cell culture supernatant was done by the NucleoSpin RNA Virus Kit (Macherey–Nagel), and the intracellular RNA was extracted from cells by the RNeasy kit (Qiagen).

MNV [4] = assay: MNV virus yield assay, viral RNA by RT-qPCR; type: cell-based, Murine norovirus; conditions: viral RNA levels by RT-qPCR
Protocol: The supernatants of treated or untreated infected cells were harvested. The viral RNA was isolated from supernatant using the NucleoSpin RNA Virus Kit (Macherey–Nagel), according to the manufacturer’s protocol and was quantified by RT-qPCR. A one-step RT-qPCR was performed in a reaction mixture of 20 μL containing 10 μL reaction mix from the iTaq Universal Probes One-Step Kit (Bio-Rad), 0.5 μL reverse transcriptase, 4 μL template RNA, primers, and probe.

[5] = test system: compound 6res MNV variants; assay: Antiviral assay on selected compound 6res MNV variants in RAW 264.7 cells; type: cell-based, Murine norovirus
Protocol: RAW 264.7 cells (1 × 10^4 cells/well) were seeded into the wells of 96-well plate and were infected with MNV.CW1 in the presence of a dilution series of compounds. When CPE was visible in the virus control (no compound), all the wells were scored for visible CPE. Virus was harvested from the wells in which CPE was observed under the highest compound pressure. The resistant virus was then diluted to 1:5 and used to infect a new 96-well plate under the same conditions to continue. […] MNV^res viruses were analyzed by deep sequencing by the group of Prof. Matthijnssens as described previously. The assembled sequence of the untreated MNV, that was passaged in parallel, was used as reference to align the MNV variants that were under compound pressure.
(§1) The assessment of the antiviral activity of compounds on resistant viruses was performed similarly as the regular antiviral assay on MNV. First, the titer of the resistant viruses was determined by endpoint titration. A concentration of 30× TCID50 was used for each virus in the antiviral assays. RAW 264.7 cells (1 × 10^4 cells/well) were seeded in the presence of a dilution series of compounds and infected. Antiviral activity was determined using the MTS method. The 50% effective concentration (EC50) was defined as the compound concentration that protected 50% of the cells from CPE.

[6] = test system: MNV.CW3/S131T and MNV.CW3/Y154F; assay: Antiviral assay on reverse-engineered MNV.CW3 mutant viruses (S131T, Y154F); type: cell-based, Murine norovirus; conditions: single mutations S131T or Y154F in MNV backbone
Protocol: The desired mutations were introduced into the MNV.CW3 cDNA clones using the QuikChange II XL mutagenesis kit (Agilent) according to the manufacturer’s instructions. The presence of the desired mutation in the produced construct was confirmed by PCR and sequencing was done by Macrogen Inc. Sequences were analyzed and mutations were detected using the Geneious software.
The MNV.CW3 mutant viral stocks were obtained by transfecting the mutated plasmid pMNV CW3 (kindly provided by Prof. Wobus, University of Michigan) in Huh 7 Lunet cells expressing the MNV receptor CD300lf (kindly provided by Prof. Taube, University of Lübeck). Huh-7 CD300lf cells were cultured under selective pressure of G418. The Huh-7 CD300lf cells were seeded in 6-well plates at a density of 2 × 10^5 cells/mL in 2.5 mL of complete media. After 24 h, the cells were transfected with 2.5 μg of pMNV CW3 plasmid DNA using the TransIT mRNA Transfection Kit (Mirus Bio Corporation) according to the manufacturer’s protocol. Red fluorescent protein (RFP) was used as a positive control for transfection. Transfected cells were incubated for 48 h, cells underwent two freeze thaw cycles and the virus was harvested from the supernatants after centrifugation (10 min, 1000× g) and stored at −80 °C. Virus stocks were passaged for three times on BV-2 cells and followed by two consecutive passages on RAW 264.7 cells. Viral titers were determined by serial dilutions on RAW 264.7 cells seeded in 96-well plates.
as §1

MNV RdRp, sequence (Q80J95 1178-1687): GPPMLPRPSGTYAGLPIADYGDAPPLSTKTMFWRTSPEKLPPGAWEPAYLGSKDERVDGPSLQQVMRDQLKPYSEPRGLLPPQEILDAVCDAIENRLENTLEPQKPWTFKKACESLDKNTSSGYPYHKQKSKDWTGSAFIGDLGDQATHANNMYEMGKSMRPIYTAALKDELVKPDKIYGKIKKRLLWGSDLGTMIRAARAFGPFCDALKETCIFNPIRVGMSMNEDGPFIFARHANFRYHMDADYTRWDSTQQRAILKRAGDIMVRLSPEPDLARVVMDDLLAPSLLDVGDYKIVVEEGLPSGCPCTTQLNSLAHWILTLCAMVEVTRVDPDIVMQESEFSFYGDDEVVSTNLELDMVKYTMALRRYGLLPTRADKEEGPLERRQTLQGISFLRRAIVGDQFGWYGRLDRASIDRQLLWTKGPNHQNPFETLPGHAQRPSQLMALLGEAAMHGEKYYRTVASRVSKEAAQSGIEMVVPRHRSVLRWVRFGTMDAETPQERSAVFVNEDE

Structure (SMILES): Cc1cc(C)cc(S(=O)(=O)c2c(C(=O)NCc3ccc(CO)cc3)[nH]c3ccc(Cl)cc23)c1 [compound 6, 5-Chloro-3-((3,5-dimethylphenyl)sulfonyl)-N-(4-(hydroxymethyl)benzyl)-1H-indole-2-carboxamide]
- EC50 ([1]; RAW264.7, concentration inhibiting norovirus induced cell death (CPE) by 50%): 200 ± 100 nM
- EC50 ([1]; concentration inhibiting norovirus induced cell death (CPE) by 50%): 160 ± 60 nM
- direct inhibition of the norovirus polymerase (competition with natural substrate) (MNV RdRp): no direct competition; also recorded: could not directly inhibit the active site of the enzyme
- EC50 ([2]; Norovirus, HG23, 72 h, read-out: HuNoV Replicon EC50 ± SD (µM), Norwalk replicon (human GI.1), HG23 cells, 72 h, replicon RNA by RT-qPCR): 1.24 µM
- EC50 ([2]; Norwalk replicon (human GI.1), HG23 cells, 72 h, replicon RNA by RT-qPCR, read-out: HuNoV Replicon EC50 ± SD): 1.2 µM and ~1.7 µM
- adverse effects on the host cells ([2]; host cells of HuNoV GI.1 replicon assay): without adverse effects on the host cells
- EC50 ([2]; read-out: HuNoV Replicon EC50 ± SD, Norwalk replicon (human GI.1), HG23 cells, 72 h, replicon RNA by RT-qPCR): 1.27 ± 0.76 µM
- time of addition after which the antiviral effect was lost (MNV [3]; MNV MOI 1, RAW 264.7 cells, compound added at 2 h intervals): 6–8 h pi
- step of the MNV replication cycle at which the compound acts (MNV [3]; time-of-addition experiment): onset of the viral genome replication
- melting point: 124 to 126 °C
- EC50 (MNV [4]): 210 ± 30 nM
- shift in EC50 ([5]; mutants 1 and 3 together): 6–8 fold
- shift in EC50 values ([5]; resistant variant mutant 1 (first value), after 30 passages): 8.6 fold
- shift in EC50 values ([5]; resistant variant mutant 3, after 30 passages): 6.2 fold
- shift in EC50 / sensitivity of mutant viruses [6]: no shift in EC50
